This is an account of results in patent US20260174757A1, “COMPOSITIONS AND METHODS FOR TREATING PULMONARY ARTERIAL HYPERTENSION” (Inhibikase Therapeutics, Inc., priority 2024, published 2026).

The term NOAEL denotes the highest tested level that showed no adverse finding. By CL/F is commonly meant the apparent clearance, not corrected for the fraction that reaches the circulation. In general, Cmax refers to the highest concentration seen after dosing. Usually Tmax stands for the time from dosing to the highest level.

Where a name gives a salt, the structure may show the parent alone. Read-outs that look alike come from different tables or passages of the source.

Series [1] is described as follows: Comparative toxicology in non-human primate (NOAEL). The conditions noted are these: cynomolgus macaque, in vivo; 28-day GLP toxicology study in cynomolgus macaques; read-out: No Adverse Effect Level (NOAEL). An excerpt:
The compound of formula (I) was originally developed to address on-dosing side effects of imatinib therapy. In particular, up to 50% of imatinib patients experience persistent Grade 2 or less gastrointestinal (GI) adverse events during treatment for blood or stomach cancers, and during the previous imatinib trials, up to ⅓ of participants experienced these GI events including 3% of participants experiencing SAEs due to GI disturbance. The compound of formula (I) was developed specifically to reduce these events with the expectations that improvement in other off-target or unintended side effects of this therapy could follow. To illustrate the potential of the compound of formula (I) to minimize GI disturbance, the compound was evaluated in comparative toxicology experiments in non-human primate (NHP).

For series [2] the following is noted: human, in vivo. An excerpt: Additionally, the clinical pharmacokinetics for each cohort of healthy subjects studied for the compound of formula (I) using the designs were summarized.
For series [3] the following is noted: steady state, Day 91, NOAEL 15 mg/kg, from NDA 21-335, cited from earlier work.
The conditions of series [4]: imatinib mesylate in NHP, Q.D.; from NDA 21-335; cited from earlier work.

On to `CCC(C)OC(=O)OC[N+]1(C)CCN(Cc2ccc(C(=O)Nc3ccc(C)c(Nc4nccc(-c5cccnc5)n4)c3)cc2)CC1` (stereo not shown) [IkT-001Pro], for which, in series [1], the NOAEL at 28 day turned out to be 75 mg/kg. Moreover, the “dose dependence of single dose Cmax and AUC0-inf” value in series [2] is recorded as “increased linearly with dose”. Further, in series [2] (300 mg), the AUC0-last was 17820 ng·h/mL, the apparent clearance CL/F worked out at 14.03 L/h, the maximum concentration (Cmax) worked out at 926.1 ng/mL and the Tmax was found to be 5.33 h. This compound returned a Vz/F in series [2] (300 mg) of 331.4 L. Moreover, in series [2] (400 mg), the AUC0-last was determined as 30100 ng·h/mL, the CL/F was found to be 10.82 L/h, the peak concentration (Cmax) was determined as 1563 ng/mL and the Tmax was 5.75 h. In addition, the Vz/F in series [2] (400 mg) worked out at 247.5 L. Further, in series [2] (500 mg), the AUC0-last stood at 38440 ng·h/mL, the CL/F came to 11.29 L/h, the Cmax is listed as 1836 ng/mL and the Tmax turned out to be 5.75 h. This compound had a Vz/F in series [2] (500 mg) of 303.8 L. Besides, in series [2] (600 mg), the “AUC0-inf LSM (plasma imatinib)” value is recorded as 41202.597, the “AUC0-last LSM (plasma imatinib)” value was 40456.384 and the “Cmax LSM (plasma imatinib)” value is 1939.51. Further, in series [2] (800 mg), the “AUC0-inf LSM” value is listed as 50840.298, the AUC0-last stood at 51430 ng·h/mL, the “AUC0-last LSM” value is 50220.802 and the CL/F turned out to be 12.8 L/h. Besides, in series [2] (800 mg), the Cmax stood at 2467 ng/mL, the “Cmax LSM” value was 2409.131, the Tmax turned out to be 5.5 h and the Vz/F was determined as 272 L.
Consider `Cc1ccc(NC(=O)c2ccc(CN3CCN(C)CC3)cc2)cc1Nc1nccc(-c2cccnc2)n1` [Imatinib mesylate, imatinib mesylate], for which the “AUC0-last (mean)” value in series [3] (female) was 1960 ng·h/mL; in series [3] (male), 1540 ng·h/mL. Moreover, the “No Adverse Effect Level (NOAEL)” value in series [4] was 15 mg/kg.
